From US4889857A, “Quinolonecarboxylic acid compounds and pharmaceutical use thereof” (Yoshitomi Pharmaceutical Industries, Ltd., priority 1987, dated 1989)
≈ marks a conversion by molar mass, not a printed value. Like-named read-outs stand apart in the source and are kept apart here.

What was measured:
[1] = system: Streptococcus sarivaris IFO 13956; experiment: Antibacterial activity in vitro (MIC); type: cell-based
[2] = system: Acinetobacter calcoaceticus ATCC 13006; experiment: Antibacterial activity in vitro (MIC); type: cell-based
Protocol: (§1) The antibacterial activities in vitro (minimum inhibitory concentration, MIC, μg/ml) of the test compounds were measured according to the standard method of the Japanese Chemotherapy Society (Chemotherapy, Vol. 23, p.1126, 1974).
(§2) (Inoculum size: 10^6 cells/ml, Organisms with asterisk (*) were
(§3) cultivated in a 10% horse bloodadded medium.)

[3] = system: Bacillus subtilis PCT 219; experiment: Antibacterial activity in vitro (MIC); type: cell-based
Protocol: as §1, §2, §3

[4] = system: Citrobacter freundii IFO 12681; experiment: Antibacterial activity in vitro (MIC); type: cell-based; conditions: IFO12681, inoculum 10^6 cells/ml
Protocol: as §1, §2, §3

[5] = system: Corynebacterium diphtheriae Tronto; experiment: Antibacterial activity in vitro (MIC); type: cell-based
Protocol: as §1, §2, §3

[6] = system: Escherichia coli NIHJ JC-2; experiment: Antibacterial activity in vitro (MIC); type: cell-based
Protocol: as §1, §2, §3

Escherichia coli O-111 = experiment: Antibacterial activity in vitro (MIC); type: cell-based; conditions: O111, inoculum 10^6 cells/ml
Protocol: as §1, §2, §3

Escherichia coli T-7 = experiment: Antibacterial activity in vitro (MIC); type: cell-based; conditions: T7, inoculum 10^6 cells/ml
Protocol: as §1, §2, §3

Klebsiella pneumoniae DT = experiment: Antibacterial activity in vitro (MIC); type: cell-based
Protocol: as §1, §2, §3

[7] = system: Morganella morganii IFO 3168; experiment: Antibacterial activity in vitro (MIC); type: cell-based; conditions: IFO3168, inoculum 10^6 cells/ml, read-out: MIC
Protocol: as §1, §2, §3

[8] = system: Pediococcus damnosus IFO 3895; experiment: Antibacterial activity in vitro (MIC); type: cell-based
Protocol: as §1, §2, §3

[9] = system: Proteus mirabilis IFO 3849; experiment: Antibacterial activity in vitro (MIC); type: cell-based; conditions: IFO3849, inoculum 10^6 cells/ml, read-out: MIC
Protocol: as §1, §2, §3

[10] = system: Proteus vulgaris IFO 3988; experiment: Antibacterial activity in vitro (MIC); type: cell-based
Protocol: as §1, §2, §3

[11] = system: Pseudomonas aeruginosa IFO 12582; experiment: Antibacterial activity in vitro (MIC); type: cell-based
Protocol: as §1, §2, §3

[12] = system: Pseudomonas aeruginosa U-31; experiment: Antibacterial activity in vitro (MIC); type: cell-based; conditions: U31, inoculum 10^6 cells/ml, read-out: MIC
Protocol: as §1, §2, §3

[13] = system: Pseudomonas putida IFO 12996; experiment: Antibacterial activity in vitro (MIC); type: cell-based; conditions: IFO12996, inoculum 10^6 cells/ml, read-out: MIC
Protocol: as §1, §2, §3

[14] = system: Serratia marcescens IFO 12648; experiment: Antibacterial activity in vitro (MIC); type: cell-based
Protocol: as §1, §2, §3

Shigella flexneri EW-10 = experiment: Antibacterial activity in vitro (MIC); type: cell-based; conditions: EW10, inoculum 10^6 cells/ml
Protocol: as §1, §2, §3

Shigella sonnei EW-33 = experiment: Antibacterial activity in vitro (MIC); type: cell-based; conditions: EW33, inoculum 10^6 cells/ml
Protocol: as §1, §2, §3

[15] = system: Shigella typhosa Boxhill-58; experiment: Antibacterial activity in vitro (MIC); type: cell-based
Protocol: as §1, §2, §3

[16] = system: Staphylococcus aureus 1840; experiment: Antibacterial activity in vitro (MIC); type: cell-based
Protocol: as §1, §2, §3

[17] = system: Staphylococcus aureus FDA 209P; experiment: Antibacterial activity in vitro (MIC); type: cell-based; conditions: FDA209P
Protocol: as §1, §2, §3

[18] = system: Staphylococcus epidermidis ATCC 12228; experiment: Antibacterial activity in vitro (MIC); type: cell-based
Protocol: as §1, §2, §3

[19] = system: Streptococcus lactis IFO 12546; experiment: Antibacterial activity in vitro (MIC); type: cell-based; conditions: Lactococcus lactis, IFO12546; inoculum 10^6 cells/ml; 10% horse blood-added medium; read-out: MIC
Protocol: as §1, §2, §3

[20] = system: Streptococcus sp. IFO 3535; experiment: Antibacterial activity in vitro (MIC); type: cell-based; conditions: IFO3535, inoculum 10^6 cells/ml, 10% horse blood-added medium, read-out: MIC
Protocol: as §1, §2, §3

[21] = system: Streptococcus viridans America; experiment: Antibacterial activity in vitro (MIC); type: cell-based
Protocol: as §1, §2, §3

[22] = system: Xanthomonas maltophilia IFO 12690; experiment: Antibacterial activity in vitro (MIC); type: cell-based; conditions: Stenotrophomonas maltophilia, IFO12690; inoculum 10^6 cells/ml
Protocol: as §1, §2, §3

E. coli KC-14 = experiment: Protective effect against experimental infection in mice; type: in vivo; conditions: oral, 1 h after i.p. inoculation of 5.75 × 10^4 cells/mouse [488 LD50] with mucin; survival day 7; 95% confidence limit
Protocol: (§4) Experimental infection was caused by inoculating male mice intraperitoneally with each organism. Each of the test compounds was administered orally to the mice, one hour after the inoculation. The therapeutic effect of each compounds was judged by using a 50% effective dose (ED50) from the survival rate on day 7 after injection by the Probit method as described in Proc. Soc. Exp. Biol. Med., Vol. 57, p.261-264, 1944. The Minimum inhibitory concentrations (MIC) were also measured.
(§5) (The overnight cultures of test organisms with an asterisk (*) were
(§6) diluted with 50% mucin and 0.5 ml of each was injected intraperitoneally
(§7) into mice. A double asterisk (**) means a 95% confidence limit. MRSA mean
(§8) methycillinresistant Staphylococcus aureus.)

S. aureus 109(MRSA) = experiment: as above; type: in vivo; conditions: oral, 1 h after i.p. inoculation of 4.93 × 10^8 cells/mouse [5.7 LD50] with mucin; survival day 7; 95% confidence limit
Protocol: as §4, §5, §6, §7, §8

S. aureus Smith = experiment: as above; type: in vivo; conditions: oral, 1 h after i.p. inoculation of 2.13 × 10^6 cells/mouse [792 LD50] with mucin; survival day 7; 95% confidence limit
Protocol: as §4, §5, §6, §7, §8

S. pneumoniae Type III = experiment: as above; type: in vivo; conditions: oral, 1 h after i.p. inoculation of 6.0 × 10^2 cells/mouse [12 LD50]; survival day 7; 95% confidence limit
Protocol: as §4, §5, §6, §7, §8

S. pyogenes C-203 = experiment: as above; type: in vivo; conditions: oral, 1 h after i.p. inoculation of 4.42 × 10^4 cells/mouse [680 LD50]; survival day 7; 95% confidence limit
Protocol: as §4, §5, §6, §7, §8

[23] = system: Micrococcus luteus IFO 12708; experiment: microbe, parasite or virus in culture; conditions: IFO12708
[24] = inoculum 10^6 cells/ml, 10% horse blood-added medium, read-out: MIC
[25] = inoculum 10^6 cells/ml, read-out: MIC

Row | Structure (SMILES) | MIC [4] [µg/mL] | MIC (Escherichia coli O-111) [µg/mL] | MIC (Escherichia coli T-7) [µg/mL] | MIC [7] [µg/mL] | MIC [9] [µg/mL] | MIC [12] [µg/mL] | MIC [13] [µg/mL] | MIC (Shigella flexneri EW-10) [µg/mL] | MIC (Shigella sonnei EW-33) [µg/mL] | MIC [15] [µg/mL] | MIC [19] [µg/mL] | MIC [20] [µg/mL] | MIC [22] [µg/mL] | ED50 (E. coli KC-14) | ED50 (S. aureus 109(MRSA)) | ED50 (S. aureus Smith) | ED50 (S. pneumoniae Type III) | ED50 (S. pyogenes C-203) | MIC [23] [µg/mL] | further results
1 | CNCC1CN(c2c(F)cc3c(=O)c(C(=O)O)cn(C4CC4)c3c2F)CCO1 (stereo not drawn) [Compound A, 1-cyclopropyl-6,8-difluoro-1,4,-dihydro-7-[2-(methylaminomethyl)morpholino]-4-oxoquinoline-3-carboxylic acid] | 0.2 (≈ 0.508 µM) | 0.2 (≈ 0.508 µM) | 0.1 (≈ 0.254 µM) | 1.56 (≈ 3.97 µM) | 1.56 (≈ 3.97 µM) | 1.56 (≈ 3.97 µM) | 1.56 (≈ 3.97 µM) | 0.025 (≈ 0.0636 µM) | 0.025 (≈ 0.0636 µM) | 0.05 (≈ 0.127 µM) | 1.56 (≈ 3.97 µM) | 1.56 (≈ 3.97 µM) | 0.1 (≈ 0.254 µM) | 0.028(0.019-0.042) mg/mouse | 0.061(0.041-0.093) mg/mouse | 0.068(0.044-0.104) mg/mouse | 0.707(0.453-1.104) mg/mouse | 0.214(0.124-0.388) mg/mouse | 0.39 (≈ 0.991 µM) | MIC ([1]; IFO13956): 0.2 µg/mL (≈ 0.508 µM); MIC ([2]; ATCC13006): 0.39 µg/mL (≈ 0.991 µM); MIC ([3]; PCT219, inoculum 10^6 cells/ml, read-out: MIC): 0.012 µg/mL (≈ 0.0305 µM); MIC [5]: 0.025 µg/mL (≈ 0.0636 µM); MIC ([6]; NIHJJC2): 0.1 µg/mL (≈ 0.254 µM); MIC (Klebsiella pneumoniae DT): 0.2 µg/mL (≈ 0.508 µM); MIC ([8]; IFO3895): 0.39 µg/mL (≈ 0.991 µM); MIC ([10]; IFO3988): 0.78 µg/mL (≈ 1.98 µM); MIC ([11]; IFO12582): 3.13 µg/mL (≈ 7.96 µM); MIC ([14]; IFO12648): 0.78 µg/mL (≈ 1.98 µM); MIC [16]: 0.1 µg/mL (≈ 0.254 µM); MIC [17]: 0.025 µg/mL (≈ 0.0636 µM); MIC ([18]; ATCC12228): 0.05 µg/mL (≈ 0.127 µM); MIC [21]: 0.2 µg/mL (≈ 0.508 µM)
2 | CC1COc2c(N3CCN(C)CC3)c(F)cc3c(=O)c(C(=O)O)cn1c23 (stereo not drawn) [OFLX, 9-fluoro-3-methyl-10-(4-methyl-1-piperazinyl)-7-oxo-2,3-dihydro-7H-pyrido[1,2,3-de][1,4]-benzoxazine-6-carboxylic acid] | 0.05 (≈ 0.138 µM) | 0.05 (≈ 0.138 µM) | 0.05 (≈ 0.138 µM) | 0.1 (≈ 0.277 µM) | 0.39 (≈ 1.08 µM) | 0.78 (≈ 2.16 µM) | 1.56 (≈ 4.32 µM) | 0.05 (≈ 0.138 µM) | 0.025 (≈ 0.0692 µM) | 0.025 (≈ 0.0692 µM) | 6.25 (≈ 17.3 µM) | 3.13 (≈ 8.66 µM) | 0.05 (≈ 0.138 µM) | 0.018(0.013-0.026) mg/mouse | 0.459(0.257-0.661) mg/mouse | 0.380(0.253-0.601) mg/mouse | > 2 mg/mouse | 1.432(1.006-2.393) mg/mouse | 3.13 (≈ 8.66 µM) | MIC ([1]; IFO13956, inoculum 10^6 cells/ml, 10% horse blood-added medium, read-out: MIC): 3.13 µg/mL (≈ 8.66 µM); MIC ([2]; ATCC13006, inoculum 10^6 cells/ml, read-out: MIC): 0.2 µg/mL (≈ 0.553 µM); MIC ([3]; PCT219): 0.05 µg/mL (≈ 0.138 µM); MIC [5, 24]: 0.2 µg/mL (≈ 0.553 µM); MIC ([6]; NIHJJC2, inoculum 10^6 cells/ml, read-out: MIC): 0.1 µg/mL (≈ 0.277 µM); MIC (Klebsiella pneumoniae DT; [25]): 0.1 µg/mL (≈ 0.277 µM); MIC ([8]; IFO3895, inoculum 10^6 cells/ml, 10% horse blood-added medium, read-out: MIC): 0.2 µg/mL (≈ 0.553 µM); MIC ([10]; IFO3988, inoculum 10^6 cells/ml, read-out: MIC): 0.1 µg/mL (≈ 0.277 µM); MIC ([11]; IFO12582, inoculum 10^6 cells/ml, read-out: MIC): 1.56 µg/mL (≈ 4.32 µM); MIC ([14]; IFO12648, inoculum 10^6 cells/ml, read-out: MIC): 0.2 µg/mL (≈ 0.553 µM); MIC [16, 25]: 1.56 µg/mL (≈ 4.32 µM); MIC [17, 25]: 0.2 µg/mL (≈ 0.553 µM); MIC ([18]; ATCC12228, inoculum 10^6 cells/ml, 10% horse blood-added medium, read-out: MIC): 0.2 µg/mL (≈ 0.553 µM); MIC [21, 24]: 1.56 µg/mL (≈ 4.32 µM)
